These results are taken from ChEMBL document CHEMBL5465560, “Selectivity Literature for EUbOPEN Chemogenomic Library” (2024).

The target of test [1] is Histone-lysine N-methyltransferase SUV39H2 (Homo sapiens) (UniProt Q9H5I1). The experiment in a line: Selectivity interaction (Methyltransferase screen (radiometric assays, panel of 8 PRMTs, 21 protein lysine methyltransferases, 3 DNA methyltransferases, and one RNA methyltransferase)) EUB0000271b SUV39H2.
The target in a further test is Focal adhesion kinase 1 (Homo sapiens, UniProt Q05397). As to the kind of experiment: Selectivity interaction (KinomeScan (DiscoverX)) EUB0000607a PTK2. The following applies: at 10 µM.
Focal adhesion kinase 1, sequence (Q05397 2-1052 limits assumed): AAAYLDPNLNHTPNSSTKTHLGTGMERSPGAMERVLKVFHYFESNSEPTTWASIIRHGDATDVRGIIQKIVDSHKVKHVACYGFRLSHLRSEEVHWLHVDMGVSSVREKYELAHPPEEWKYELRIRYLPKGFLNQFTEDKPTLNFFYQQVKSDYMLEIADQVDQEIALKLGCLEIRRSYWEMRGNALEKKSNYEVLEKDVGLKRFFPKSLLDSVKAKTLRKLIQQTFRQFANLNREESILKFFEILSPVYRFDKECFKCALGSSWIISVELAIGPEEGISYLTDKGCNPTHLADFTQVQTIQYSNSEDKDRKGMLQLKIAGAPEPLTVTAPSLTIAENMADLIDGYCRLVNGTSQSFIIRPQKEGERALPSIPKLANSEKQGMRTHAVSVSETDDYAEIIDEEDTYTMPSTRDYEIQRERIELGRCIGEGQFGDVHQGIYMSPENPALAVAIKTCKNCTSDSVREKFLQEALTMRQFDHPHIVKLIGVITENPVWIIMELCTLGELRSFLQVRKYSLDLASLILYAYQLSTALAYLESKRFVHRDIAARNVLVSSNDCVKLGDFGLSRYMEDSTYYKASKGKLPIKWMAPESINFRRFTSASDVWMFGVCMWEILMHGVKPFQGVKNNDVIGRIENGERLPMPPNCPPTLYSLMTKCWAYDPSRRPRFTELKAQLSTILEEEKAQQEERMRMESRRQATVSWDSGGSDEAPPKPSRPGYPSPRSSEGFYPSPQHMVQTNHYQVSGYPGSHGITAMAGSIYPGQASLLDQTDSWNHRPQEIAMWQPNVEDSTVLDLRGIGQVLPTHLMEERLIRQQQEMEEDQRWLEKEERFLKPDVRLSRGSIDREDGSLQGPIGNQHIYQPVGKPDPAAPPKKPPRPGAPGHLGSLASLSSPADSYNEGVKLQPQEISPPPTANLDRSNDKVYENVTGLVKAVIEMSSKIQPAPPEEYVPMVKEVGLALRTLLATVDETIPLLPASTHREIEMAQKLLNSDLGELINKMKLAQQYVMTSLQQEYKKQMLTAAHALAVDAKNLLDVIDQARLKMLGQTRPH
Test [2] addresses T1, Bone morphogenetic protein receptor type-2 (Homo sapiens) (UniProt Q13873).
T1 sequence (whole entry): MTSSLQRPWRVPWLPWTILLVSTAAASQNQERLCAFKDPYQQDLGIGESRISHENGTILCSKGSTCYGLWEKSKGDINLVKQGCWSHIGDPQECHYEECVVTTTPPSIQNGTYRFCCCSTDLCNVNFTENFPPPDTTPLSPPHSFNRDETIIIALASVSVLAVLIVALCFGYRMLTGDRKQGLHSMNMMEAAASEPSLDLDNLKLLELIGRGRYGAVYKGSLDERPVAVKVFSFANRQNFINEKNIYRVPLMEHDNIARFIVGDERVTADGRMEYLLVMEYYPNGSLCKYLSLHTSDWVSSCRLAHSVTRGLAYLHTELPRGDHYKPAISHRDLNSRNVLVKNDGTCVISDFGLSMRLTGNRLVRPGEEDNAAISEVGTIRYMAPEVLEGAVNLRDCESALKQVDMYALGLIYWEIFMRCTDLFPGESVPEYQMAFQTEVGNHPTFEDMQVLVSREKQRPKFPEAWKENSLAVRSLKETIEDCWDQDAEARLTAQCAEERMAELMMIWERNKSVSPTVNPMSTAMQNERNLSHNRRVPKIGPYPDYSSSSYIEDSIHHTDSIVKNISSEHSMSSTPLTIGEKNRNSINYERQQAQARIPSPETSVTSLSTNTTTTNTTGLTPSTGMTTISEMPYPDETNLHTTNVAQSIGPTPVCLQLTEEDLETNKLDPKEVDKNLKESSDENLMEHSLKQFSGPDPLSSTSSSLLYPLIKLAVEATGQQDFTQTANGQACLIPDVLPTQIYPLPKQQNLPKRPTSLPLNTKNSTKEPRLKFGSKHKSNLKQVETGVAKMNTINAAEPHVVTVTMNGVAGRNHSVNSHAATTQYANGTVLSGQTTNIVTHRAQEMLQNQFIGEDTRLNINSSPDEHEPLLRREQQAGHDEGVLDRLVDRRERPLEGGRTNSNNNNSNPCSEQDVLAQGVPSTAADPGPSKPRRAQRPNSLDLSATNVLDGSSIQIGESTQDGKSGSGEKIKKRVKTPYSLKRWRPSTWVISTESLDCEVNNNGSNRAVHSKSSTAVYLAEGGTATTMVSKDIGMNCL
The settings on record: at 10 µM.

The target in test [3] is CDK4/Cyclin D3 (Homo sapiens) (UniProt P11802+P30281). The experiment in a line: (§1) Selectivity interaction (KinomeScan (DiscoverX)) EUB0000229b CDK4. The class given is protein-complex assay. The following applies: at 10 µM.
Test [4] deals with Cyclin-dependent kinase 4/cyclin D1 (Homo sapiens) (UniProt P11802+P24385). Described as §1. The class given is protein-complex assay. The settings on record: at 10 µM.
In test [5] the target is Macrophage colony-stimulating factor 1 receptor (Homo sapiens) (UniProt P07333). The experiment in a line: Selectivity interaction (KinomeScan (DiscoverX)) EUB0000655a CSF1R. The settings on record: at 10 µM.
Macrophage colony-stimulating factor 1 receptor (Homo sapiens), sequence (P07333 whole entry): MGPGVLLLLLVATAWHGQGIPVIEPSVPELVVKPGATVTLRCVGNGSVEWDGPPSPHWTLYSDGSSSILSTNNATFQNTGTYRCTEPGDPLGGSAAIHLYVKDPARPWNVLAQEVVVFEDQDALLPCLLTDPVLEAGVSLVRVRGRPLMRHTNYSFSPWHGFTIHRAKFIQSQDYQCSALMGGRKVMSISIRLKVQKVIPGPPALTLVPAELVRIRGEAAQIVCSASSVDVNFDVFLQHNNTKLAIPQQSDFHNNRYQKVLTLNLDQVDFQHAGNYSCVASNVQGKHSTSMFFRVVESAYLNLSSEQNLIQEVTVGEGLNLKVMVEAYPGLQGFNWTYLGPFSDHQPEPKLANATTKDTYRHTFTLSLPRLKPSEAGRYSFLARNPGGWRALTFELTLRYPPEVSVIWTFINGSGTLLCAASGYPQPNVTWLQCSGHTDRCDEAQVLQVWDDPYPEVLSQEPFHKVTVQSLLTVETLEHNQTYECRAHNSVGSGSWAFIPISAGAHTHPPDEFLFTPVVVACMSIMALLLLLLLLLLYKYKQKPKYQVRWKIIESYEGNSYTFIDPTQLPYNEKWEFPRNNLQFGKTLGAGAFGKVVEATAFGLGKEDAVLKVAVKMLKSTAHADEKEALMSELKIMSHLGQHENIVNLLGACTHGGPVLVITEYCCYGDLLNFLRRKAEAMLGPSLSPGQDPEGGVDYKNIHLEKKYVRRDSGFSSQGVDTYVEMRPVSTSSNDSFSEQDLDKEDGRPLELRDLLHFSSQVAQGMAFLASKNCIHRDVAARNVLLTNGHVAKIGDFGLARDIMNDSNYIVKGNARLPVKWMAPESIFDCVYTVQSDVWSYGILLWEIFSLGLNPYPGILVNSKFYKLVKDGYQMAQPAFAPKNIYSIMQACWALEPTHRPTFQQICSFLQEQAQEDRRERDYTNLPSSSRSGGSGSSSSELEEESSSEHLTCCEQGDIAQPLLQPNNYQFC
Test [6] addresses Serine/threonine-protein kinase pim-1 (Homo sapiens, UniProt P11309). As to the kind of experiment: Selectivity interaction (KinomeScan (DiscoverX)) EUB0001619a PIM1. The following applies: at 1 µM.
Test [7] concerns the target Ribosomal protein S6 kinase alpha-4 (Homo sapiens) (UniProt O75676). As to the kind of experiment: Selectivity interaction (KinomeScan (DiscoverX)) EUB0000045b RPS6KA4.
In test [8] the target is T2, Serine/threonine-protein kinase PLK4 (Homo sapiens) (UniProt O00444).
T2 sequence (whole entry): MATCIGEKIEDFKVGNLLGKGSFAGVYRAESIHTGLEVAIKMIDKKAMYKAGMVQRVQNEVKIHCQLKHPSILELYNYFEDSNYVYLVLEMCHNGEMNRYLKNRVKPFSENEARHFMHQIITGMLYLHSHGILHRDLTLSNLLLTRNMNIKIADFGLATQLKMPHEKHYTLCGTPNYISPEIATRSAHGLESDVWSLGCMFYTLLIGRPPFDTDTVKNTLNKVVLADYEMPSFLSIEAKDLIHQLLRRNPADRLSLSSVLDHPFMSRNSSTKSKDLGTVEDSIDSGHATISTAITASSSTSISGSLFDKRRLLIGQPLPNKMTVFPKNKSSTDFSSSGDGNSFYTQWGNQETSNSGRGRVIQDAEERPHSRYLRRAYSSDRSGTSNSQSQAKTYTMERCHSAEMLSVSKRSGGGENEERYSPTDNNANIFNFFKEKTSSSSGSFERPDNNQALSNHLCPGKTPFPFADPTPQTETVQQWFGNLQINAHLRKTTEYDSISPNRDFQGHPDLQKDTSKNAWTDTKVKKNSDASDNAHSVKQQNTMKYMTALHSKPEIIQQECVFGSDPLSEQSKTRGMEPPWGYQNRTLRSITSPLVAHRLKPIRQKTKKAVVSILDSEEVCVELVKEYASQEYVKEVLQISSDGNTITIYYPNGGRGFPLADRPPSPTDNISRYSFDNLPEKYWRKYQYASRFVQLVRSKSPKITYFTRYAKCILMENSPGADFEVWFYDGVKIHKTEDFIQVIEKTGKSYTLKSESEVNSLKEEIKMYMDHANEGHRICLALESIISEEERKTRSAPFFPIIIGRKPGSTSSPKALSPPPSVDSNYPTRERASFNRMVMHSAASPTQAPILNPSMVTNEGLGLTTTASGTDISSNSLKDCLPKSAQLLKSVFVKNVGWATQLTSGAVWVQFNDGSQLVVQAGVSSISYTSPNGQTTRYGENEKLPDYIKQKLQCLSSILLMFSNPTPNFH
As to the kind of experiment: Selectivity interaction (KinomeScan (DiscoverX)) EUB0000618a PLK4. The following applies: at 10 µM.

Histone-lysine N-methyltransferase SUV39H2 (Homo sapiens), sequence (Q9H5I1 whole entry): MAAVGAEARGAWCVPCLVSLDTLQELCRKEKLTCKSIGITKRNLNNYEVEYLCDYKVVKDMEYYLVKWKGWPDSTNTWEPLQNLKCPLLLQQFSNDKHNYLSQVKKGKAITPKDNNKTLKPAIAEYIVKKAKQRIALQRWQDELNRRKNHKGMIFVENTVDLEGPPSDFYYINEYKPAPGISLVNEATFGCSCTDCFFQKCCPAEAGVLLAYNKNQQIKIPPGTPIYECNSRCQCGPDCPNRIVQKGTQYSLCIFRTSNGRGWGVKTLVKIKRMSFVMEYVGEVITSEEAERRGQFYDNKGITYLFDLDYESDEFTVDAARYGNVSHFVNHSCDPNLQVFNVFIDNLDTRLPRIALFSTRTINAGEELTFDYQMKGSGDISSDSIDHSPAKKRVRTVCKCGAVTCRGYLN
Ribosomal protein S6 kinase alpha-4 (Homo sapiens), sequence (O75676 whole entry, looked up): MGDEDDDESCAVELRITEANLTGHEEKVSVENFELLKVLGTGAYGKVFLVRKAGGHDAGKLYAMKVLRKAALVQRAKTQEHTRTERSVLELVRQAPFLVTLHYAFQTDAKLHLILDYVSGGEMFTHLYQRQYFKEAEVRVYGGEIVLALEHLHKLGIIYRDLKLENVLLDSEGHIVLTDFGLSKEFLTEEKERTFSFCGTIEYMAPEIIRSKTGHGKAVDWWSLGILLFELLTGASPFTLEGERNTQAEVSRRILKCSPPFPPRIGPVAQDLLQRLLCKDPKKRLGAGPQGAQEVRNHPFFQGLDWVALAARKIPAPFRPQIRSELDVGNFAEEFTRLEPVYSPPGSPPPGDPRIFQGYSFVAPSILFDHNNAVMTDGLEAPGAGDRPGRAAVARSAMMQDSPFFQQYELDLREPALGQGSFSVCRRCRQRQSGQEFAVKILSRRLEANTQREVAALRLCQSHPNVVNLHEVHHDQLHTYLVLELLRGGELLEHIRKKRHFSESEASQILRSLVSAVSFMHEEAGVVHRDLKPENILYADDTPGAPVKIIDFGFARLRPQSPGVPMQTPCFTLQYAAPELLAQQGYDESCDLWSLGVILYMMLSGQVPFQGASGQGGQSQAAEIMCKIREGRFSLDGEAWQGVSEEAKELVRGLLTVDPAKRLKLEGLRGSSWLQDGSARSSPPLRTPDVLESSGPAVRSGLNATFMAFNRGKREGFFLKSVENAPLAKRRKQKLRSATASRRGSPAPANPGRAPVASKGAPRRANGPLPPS
Serine/threonine-protein kinase pim-1, sequence (P11309 whole entry, looked up): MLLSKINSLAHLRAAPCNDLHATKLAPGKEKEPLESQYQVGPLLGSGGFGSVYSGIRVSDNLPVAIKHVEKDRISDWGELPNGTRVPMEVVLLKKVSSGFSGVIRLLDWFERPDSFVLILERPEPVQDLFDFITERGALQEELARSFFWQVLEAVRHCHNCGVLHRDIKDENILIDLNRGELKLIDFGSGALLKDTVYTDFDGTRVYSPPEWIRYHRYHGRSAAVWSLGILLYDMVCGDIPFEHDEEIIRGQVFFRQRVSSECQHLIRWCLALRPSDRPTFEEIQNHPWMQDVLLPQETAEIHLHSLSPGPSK

With `Cc1cc(C)cc([C@@H]2c3cc(C)ccc3NC(=O)CN2C(=O)c2ccc(Br)s2)c1`, the values for the % of activity in [1] (at 1 µM) and in [1] (at 10 µM) were 99.3% and 98.3%, respectively.

The molecule `CNC(=O)Nc1ccc(-c2nc(N3CC4CCC(C3)O4)c3cnn(C4CCC5(CC4)OCCO5)c3n2)cc1` gave a % of control at Focal adhesion kinase 1 of 78%. As for `Cc1cc([C@@H](C)Nc2ccccc2C(=O)O)c2nc(N3CCOCC3)cc(=O)n2c1` [AZD-6482], in [2], the % of control was 69%. As to `COc1cc(N(C)c2ccnc3ccc(C(F)(F)F)cc23)cc(OC)c1OC`, the % binding in test [3] was determined as 94%; in test [4], 99%. As to `CN(C)CCOc1ccc(-c2nc(-c3ccncc3)c(-c3ccc4c(c3)CC/C4=N\O)[nH]2)cc1`, the % of control in [5] came out at 86%. On to `N#Cc1cccc(-c2c[nH]c3ncnc(N4CCOCC4)c23)c1`, for which, in test [6], the % of control was 100%.

Turning to `C=CC(=O)Nc1cc(-n2c(=O)ccc3cnc4ccc(-c5ccc(NS(C)(=O)=O)cc5)cc4c32)ccc1C`, the % of control in test [7] (at 1 µM) and in [7] (at 10 µM) was 100% throughout. Turning to `O[C@H]1CC[C@H](Nc2ncc3nc(Nc4c(F)cc(F)cc4F)n([C@H]4CCOC4)c3n2)CC1`, the % of control in test [8] turned out to be 100%.
